One block for each compound: values may come before it.
Experiments:
[1] = Pharmacokinetic property (t1/2beta) was measured in rat at the dose of 0.32 mg/kg i.v.; type: ADME, organism-based; parameters: dose 0.32 mg/kg, route intravenous; conditions: in vivo, iv, read-out: T1/2 beta (converted)
Prostacyclin receptor = Prostacyclin receptor (Homo sapiens, UniProt P43119); experiment: In vitro Prostacyclin (PGI-2) receptor binding assay was determined based on displacement of [3H]iloprost radioligand from cloned human IP receptor
Sequence of Prostacyclin receptor (P43119 whole entry): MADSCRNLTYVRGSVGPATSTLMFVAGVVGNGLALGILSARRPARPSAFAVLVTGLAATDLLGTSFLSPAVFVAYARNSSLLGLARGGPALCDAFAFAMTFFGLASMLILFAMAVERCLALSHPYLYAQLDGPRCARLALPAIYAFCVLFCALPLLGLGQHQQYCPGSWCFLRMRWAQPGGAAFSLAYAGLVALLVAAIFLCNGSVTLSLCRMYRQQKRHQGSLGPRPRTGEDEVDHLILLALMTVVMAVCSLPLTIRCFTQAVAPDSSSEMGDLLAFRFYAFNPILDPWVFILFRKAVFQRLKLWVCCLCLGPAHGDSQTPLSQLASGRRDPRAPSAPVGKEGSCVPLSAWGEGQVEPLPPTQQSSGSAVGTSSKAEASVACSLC

[2] = Pharmacokinetic property (CLtot) was measured in dog at the dose of 0.032 mg/kg i.v.; type: ADME, organism-based, Canis lupus familiaris; parameters: dose 0.032 mg/kg, route intravenous; conditions: in vivo, iv, read-out: CLtotal
[3] = Pharmacokinetic property (Tmax) was measured in rat at the dose of 0.32 mg/kg p.o.; type: ADME, organism-based; parameters: dose 0.32 mg/kg, route oral; conditions: in vivo, po
[4] = Pharmacokinetic property (Tmax) was measured in dog at the dose of 0.032 mg/kg p.o.; type: ADME, organism-based, Canis lupus familiaris; parameters: dose 0.032 mg/kg, route oral; conditions: in vivo, po
[5] = Pharmacokinetic property (CLtot)of the compound was measured in rat at the dose of 0.32 mg/kg i.v.; type: ADME, organism-based; parameters: dose 0.32 mg/kg, route intravenous; conditions: in vivo, iv, read-out: CLtotal
Canis familiaris = organism: Canis familiaris; experiment: In vitro inhibition of ADP-induced platelet aggregation using dog platelet rich plasma; type: functional; conditions: Canis lupus familiaris
[6] = Pharmacokinetic property (AUC) was measured in dog at the dose of 0.032 mg/kg p.o.; type: ADME, organism-based, Canis lupus familiaris; parameters: dose 0.032 mg/kg, route oral; conditions: in vivo, po
[7] = Pharmacokinetic property (t1/2beta) was measured in dog at the dose of 0.032 mg/kg i.v.; type: ADME, organism-based, Canis lupus familiaris; parameters: dose 0.032 mg/kg, route intravenous; conditions: in vivo, iv, read-out: T1/2 beta (converted)
[8] = Pharmacokinetic property (F) was measured in rat at the dose of 0.32 mg/kg; type: ADME, organism-based; parameters: dose 0.32 mg/kg; conditions: in vivo
Homo sapiens = organism: Homo sapiens; experiment: In vitro inhibition of ADP-induced platelet aggregation using human platelet rich plasma; type: functional
Rattus norvegicus = organism: Rattus norvegicus; experiment: In vitro inhibition of ADP-induced platelet aggregation using rat platelet rich plasma; type: functional
[9] = Pharmacokinetic property (Cmax) was measured in dog at the dose of 0.032 mg/kg; type: ADME, organism-based, Canis lupus familiaris; parameters: dose 0.032 mg/kg; conditions: in vivo
[10] = Pharmacokinetic property (Cmax) was measured in rat at the dose of 0.32 mg/kg p.o.; type: ADME, organism-based; parameters: dose 0.32 mg/kg, route oral; conditions: in vivo, po
[11] = Pharmacokinetic property (F) was measured in dog at the dose of 0.032 mg/kg; type: ADME, organism-based, Canis lupus familiaris; parameters: dose 0.032 mg/kg; conditions: in vivo
[12] = Pharmacokinetic property (AUC) was measured in rat at the dose of 0.32 mg/kg p.o.; type: ADME, organism-based; parameters: dose 0.32 mg/kg, route oral; conditions: in vivo, po

half-life [1]: 6.6 h
Ki (Prostacyclin receptor): 54 nM
clearance [2]: 1.09 mL/min/kg
Tmax [3]: 0.3 h
Tmax [4]: 2.3 h
clearance [5]: 17.7 mL/min/kg
IC50 (Canis familiaris): 1300 nM
AUC [6]: 392 ng·h/mL
half-life [7]: 26 h
bioavailability [8]: 50%
IC50 (Homo sapiens): 60 nM
IC50 (Rattus norvegicus): 1200 nM
Cmax [9]: 38.7 ng/mL
Cmax [10]: 16.4 ng/mL
bioavailability [11]: 72%
AUC [12]: 147 ng·h/mL
SMILES: O=C([O-])COc1cccc(C[C@@H]2CCCC=C2c2nc(-c3ccccc3)c(-c3ccccc3)o2)c1.[Na+]

IC50 (Homo sapiens): 110 nM
SMILES: O=C(O)COc1cccc(C[C@H]2CCCC=C2c2nc(-c3ccccc3)c(-c3ccccc3)o2)c1

IC50 (Homo sapiens): 2.5 nM
SMILES: CC#CCC(C)[C@H](O)/C=C/[C@@H]1[C@H]2C/C(=C/CCCC(=O)O)C[C@H]2C[C@H]1O (some centres undefined) [ILOPROST]

IC50 (Homo sapiens): 530 nM
SMILES: O=C(O)COc1cccc(CC2=C(c3nc(-c4ccccc4)c(-c4ccccc4)o3)CCCC2)c1
